In PMC4161151 (Journal of Medicinal Chemistry, 2014):
Converted amounts (≈) assume the structure as drawn. “And” between values parts separate entries of the source, which are not always exact repeats. Identical values can stand only once. Like-named read-outs stand apart in the source and are kept apart here.

What was measured:
[1] = molecular target: T1, δ opioid receptor (Homo sapiens, UniProt P41143); settings: for behaviour at the δ receptor: δ opioid receptor [35S]GTPγS assay, result in words; for Ke δ, DPDPE: cloned human δ receptor
T1 sequence (P41143 whole entry): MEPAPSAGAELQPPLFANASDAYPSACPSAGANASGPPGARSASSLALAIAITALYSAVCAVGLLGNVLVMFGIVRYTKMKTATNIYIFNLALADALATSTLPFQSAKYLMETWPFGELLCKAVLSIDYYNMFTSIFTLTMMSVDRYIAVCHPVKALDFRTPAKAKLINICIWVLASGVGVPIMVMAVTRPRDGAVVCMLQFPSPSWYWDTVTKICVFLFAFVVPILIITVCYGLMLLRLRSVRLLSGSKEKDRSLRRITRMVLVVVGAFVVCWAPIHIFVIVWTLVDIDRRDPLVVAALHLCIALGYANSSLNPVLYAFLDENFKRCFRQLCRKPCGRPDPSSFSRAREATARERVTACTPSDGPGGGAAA

[2] = molecular target: T2, κ opioid receptor (Homo sapiens, UniProt P41145); settings: for Ke κ, U69,593: cloned human κ receptor, mean (SE), at least three independent experiments; for μ/κ: selectivity for κ relative to μ; for μ/κ / δ/κ: ratio of Ke values; for δ/κ: selectivity for κ relative to δ
T2 sequence (P41145 whole entry): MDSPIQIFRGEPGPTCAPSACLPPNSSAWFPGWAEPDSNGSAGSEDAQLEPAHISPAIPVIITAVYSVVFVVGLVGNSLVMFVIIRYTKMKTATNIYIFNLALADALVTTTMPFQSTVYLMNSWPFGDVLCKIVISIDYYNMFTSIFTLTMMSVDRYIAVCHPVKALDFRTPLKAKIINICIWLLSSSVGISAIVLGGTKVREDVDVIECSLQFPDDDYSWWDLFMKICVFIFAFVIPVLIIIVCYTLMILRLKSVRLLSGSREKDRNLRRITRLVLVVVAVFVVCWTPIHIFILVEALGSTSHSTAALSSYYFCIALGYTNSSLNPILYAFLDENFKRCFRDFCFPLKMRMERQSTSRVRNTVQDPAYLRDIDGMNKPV

[3] = molecular target: T3, μ opioid receptor (Homo sapiens, UniProt P35372); settings: cloned human μ receptor; mean (SE), at least three independent experiments
T3 sequence (P35372 whole entry): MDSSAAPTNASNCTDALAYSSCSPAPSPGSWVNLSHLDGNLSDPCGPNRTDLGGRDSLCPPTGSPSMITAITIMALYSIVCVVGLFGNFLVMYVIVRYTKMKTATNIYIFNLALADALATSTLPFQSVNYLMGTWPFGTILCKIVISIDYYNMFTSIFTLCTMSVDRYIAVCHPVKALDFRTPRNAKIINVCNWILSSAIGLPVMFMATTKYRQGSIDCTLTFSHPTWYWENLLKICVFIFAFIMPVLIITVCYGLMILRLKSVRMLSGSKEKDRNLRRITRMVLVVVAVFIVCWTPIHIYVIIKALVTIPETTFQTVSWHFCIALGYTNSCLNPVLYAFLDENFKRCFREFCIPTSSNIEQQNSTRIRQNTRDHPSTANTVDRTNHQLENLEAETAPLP

[4] = molecular target: T3, μ opioid receptor; assay: biochemical
[5] = Parallel artificial membrane permeability assay; format: in vitro ADME; settings: 4 h; for PAMPA pH 5.5, percent transported: pH 5.5, 10 μM; for PAMPA pH 7.4, percent transported: pH 7.4, 10 μM
[6] = test system: MDCK-MDR1 cells; assay: MDCK-MDR1 permeability; settings: percent transported from the optical to basal side
[7] = molecular target: T2, κ opioid receptor; assay: biochemical
[8] = S9 stability
[9] = molecular target: T1, δ opioid receptor; assay: biochemical
[10] = Kinetic solubility, 96-well plate assay; format: physicochemical; settings: for solubility at 90 min: phosphate buffer
[11] = molecular target: hERG channel (Homo sapiens, UniProt Q12809); assay: hERG [3H]astemizole radioligand displacement assay
Chain of hERG channel (Q12809 whole entry): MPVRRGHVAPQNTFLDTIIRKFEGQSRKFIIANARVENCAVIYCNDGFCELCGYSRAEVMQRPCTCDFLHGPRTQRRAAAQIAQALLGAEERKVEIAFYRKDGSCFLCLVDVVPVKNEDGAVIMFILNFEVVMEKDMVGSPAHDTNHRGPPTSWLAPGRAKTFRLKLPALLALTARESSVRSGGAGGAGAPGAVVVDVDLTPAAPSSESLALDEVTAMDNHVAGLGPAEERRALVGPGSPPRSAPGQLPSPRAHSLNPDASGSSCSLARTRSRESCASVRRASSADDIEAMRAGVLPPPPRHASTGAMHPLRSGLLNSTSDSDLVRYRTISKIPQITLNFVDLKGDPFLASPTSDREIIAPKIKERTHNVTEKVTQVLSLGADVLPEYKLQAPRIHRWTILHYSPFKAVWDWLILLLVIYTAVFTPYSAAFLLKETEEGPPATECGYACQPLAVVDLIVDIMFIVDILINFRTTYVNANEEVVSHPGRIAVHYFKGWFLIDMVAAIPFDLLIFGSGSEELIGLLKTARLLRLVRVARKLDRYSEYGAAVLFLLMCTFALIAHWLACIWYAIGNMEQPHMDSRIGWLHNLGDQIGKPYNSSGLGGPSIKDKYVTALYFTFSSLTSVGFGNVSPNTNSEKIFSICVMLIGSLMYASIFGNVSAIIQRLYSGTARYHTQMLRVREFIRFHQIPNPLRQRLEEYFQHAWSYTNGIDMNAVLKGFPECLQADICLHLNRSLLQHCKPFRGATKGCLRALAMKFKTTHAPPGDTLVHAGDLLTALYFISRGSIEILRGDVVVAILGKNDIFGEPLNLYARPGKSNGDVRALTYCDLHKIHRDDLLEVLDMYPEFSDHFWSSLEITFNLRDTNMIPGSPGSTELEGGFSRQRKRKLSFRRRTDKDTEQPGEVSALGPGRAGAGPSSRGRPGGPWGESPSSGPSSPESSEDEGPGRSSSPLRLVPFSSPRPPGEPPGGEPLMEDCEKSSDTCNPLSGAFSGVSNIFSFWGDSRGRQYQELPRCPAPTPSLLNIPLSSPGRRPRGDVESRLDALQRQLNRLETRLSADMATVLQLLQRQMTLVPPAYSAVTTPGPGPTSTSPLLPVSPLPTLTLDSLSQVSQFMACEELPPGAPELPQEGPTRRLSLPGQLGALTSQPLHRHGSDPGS

[12] = Plasma stability
[13] = molecular target: δ opioid receptor; settings: read-out: Ki δ; cited from earlier work
[14] = mean (SE), at least three independent experiments

Row | Compound | Ke κ, U69,593 [2] | μ/κ [2] | Ke μ, DAMGO [3] | Ke δ, DPDPE [1, 14] | δ/κ [2] | MDCK, percent transported [6] | S9 stability (% of parent) [8] | plasma stability (% of parent) [12] | further results
1 | (3R)-7-Fluoro-N-[(1S)-1-{[(3R,4R)-4-(3-Fluorophenyl)-3,4-dimethylpiperidin-1-yl]methyl}-2-methylpropyl]-1,2,3,4-tetrahydroisoquinoline-3-carboxamide [Compound 12] | 2.22 nM and 2.22 ± 0.47 nM | 162 | 360 ± 63 nM | – | – | – | – | – | behaviour at the δ receptor [1]: weak inverse agonist
2 | (3R)-N-[(1S)-1-{[(3R,4R)-4-(3-Bromophenyl)-3,4-dimethylpiperidin-1-yl]methyl}-2-methylpropyl]-7-hydroxy-1,2,3,4-tetrahydroisoquinoline-3-carboxamide [Compound 7] | 0.268 nM and 0.268 ± 0.01 nM | 25 | 6.56 ± 0.44 nM | 594 ± 160 nM | 2200 | – | – | – | –
3 | (3R)-N-[(1S)-1-{[(3R,4R)-4-(3-Aminophenyl)-3,4-dimethylpiperidin-1-yl]methyl}-2-methylpropyl]-7-hydroxy-1,2,3,4-tetrahydroisoquinoline-3-carboxamide [Compound 8] | 0.25 ± 0.09 nM | 42 | 10.6 nM and 10.6 ± 3.6 nM | 1899 ± 657 nM | 7600 | – | – | – | –
4 | (3R)-N^3-[(1S)-1-{[(3R,4R)-3,4-Dimethyl-4-phenylpiperidin-1-yl]methyl}-2-methylpropyl]-1,2,3,4-tetrahydroisoquinoline-3,7-dicarboxamide [Compound 15] | 0.041 ± 0.006 nM | 163 | 6.70 ± 2.1 nM | 111 ± 29 nM | 2700 | – | – | – | –
5 | CC(C)[C@@H](CN1CC[C@@](C)(c2cccc(O)c2)[C@@H](C)C1)NC(=O)[C@H]1Cc2ccc(C(N)=O)cc2CN1 [Compound 13, (3R)-N^3-[(1S)-1-{[(3R,4R)-4-(3-Hydroxyphenyl)-3,4-dimethylpiperidin-1-yl]methyl}-2-methylpropyl]-1,2,3,4-tetrahydroisoquinoline-3,7-dicarboxamide] | – | 355 | – | – | 6550 | 17% | 91.5 % of parent | 84.7 % of parent | Kb [4]: 7.09 ± 2.58 nM; PAMPA pH 5.5, percent transported [5]: 39.1%; PAMPA pH 7.4, percent transported [5]: 28.3%; Kb [7]: 0.02 ± 0.005 nM; Kb [9]: 131 ± 23 nM; solubility at pH 7.4 ([10]; pH 7.4): > 20%; solubility at 90 min ([10]; pH 3): 77 µM (≈ 37.9 µg/mL); solubility at 90 min ([10]; pH 7.4): 38 µM (≈ 18.7 µg/mL); Ki [11]: > 10000 nM
6 | (3R)-N-[(1S)-1-{[(3R,4R)-4-(3-Chlorophenyl)-3,4-dimethylpiperidin-1-yl]methyl}-2-methylpropyl]-7-hydroxy-1,2,3,4-tetrahydroisoquinoline-3-carboxamide [Compound 6] | 0.039 ± 0.001 nM | 175 | 6.81 ± 2.6 nM | 685 ± 99 nM | 17600 | – | – | – | –
7 | C[C@H]1CN(CC[C@H](O)C2CCCCC2)CC[C@@]1(C)c1cccc(O)c1 [LY255582] | – | – | – | – | – | – | – | – | Ki [13]: 4.8 nM
8 | CC(C)[C@@H](CN1CC[C@@](C)(c2cccc(C(N)=O)c2)[C@@H](C)C1)NC(=O)[C@H]1Cc2ccc(C(N)=O)cc2CN1 [Compound 14, (3R)-N^3-[(1S)-1-{[(3R,4R)-4-(3-Carbamoylphenyl)-3,4-dimethylpiperidin-1-yl]methyl}-2-methylpropyl]-1,2,3,4-tetrahydroisoquinoline-3,7-dicarboxamide] | – | 230 | – | – | 4700 | 14% | 90.9 % of parent | 55.3 % of parent | Kb [4]: 25.3 ± 7.89 nM; PAMPA pH 5.5, percent transported [5]: 36.4%; PAMPA pH 7.4, percent transported [5]: 32.2%; Kb [7]: 0.11 ± 0.02 nM; Kb [9]: 517 ± 52 nM; solubility at pH 7.4 ([10]; pH 7.4): > 20%; solubility at 90 min ([10]; pH 3): 100 µM (≈ 52 µg/mL); solubility at 90 min ([10]; pH 7.4): 81 µM (≈ 42.1 µg/mL); Ki [11]: > 10000 nM
9 | (3R)-N-[(1S)-1-{[(3R,4R)-4-(3-Hydroxyphenyl)-3,4-dimethylpiperidin-1-yl]methyl}-2-methylpropyl]-7-1,2,3,4-tetrahydroisoquinoline-3-carboxamide [Compound 9] | 4.3 ± 2 nM | 3.7 | 16 ± 5 nM | 158 nM and 158 ± 49 nM | 37 | – | – | – | –
10 | (3R)-7-Fluoro-N-[(1S)-1-{[(3R,4R)-4-(3-Hydroxyphenyl)-3,4-dimethylpiperidine-1-yl]methyl}-2-methylpropyl]-1,2,3,4-tetrahydroisoquinoline-3-carboxamide [Compound 10] | 2.20 ± 0.47 nM | 3.5 | 7.7 ± 0.9 nM | – | – | – | – | – | behaviour at the δ receptor [1]: weak inverse agonist
11 | CC(C)[C@@H](CN1CC[C@@](C)(c2cccc(O)c2)[C@@H](C)C1)NC(=O)[C@H]1Cc2ccc(O)cc2CN1 [JDTic, (3R)-1,2,3,4-tetrahydro-7-hydroxy-N-[(1S)-1-[[(3R,4R)-4-(3-hydroxyphenyl)-3,4-dimethyl-1-piperidinyl]methyl]-2-methylpropyl]-3-isoquinolinecarboxamide, reference compound] | – | – | – | – | – | 11% | 76 % of parent | 97 % of parent | –
12 | CC(C)[C@@H](CN1CC[C@@](C)(c2ccccc2)[C@@H](C)C1)NC(=O)[C@H]1Cc2ccc(O)cc2CN1 [Compound 4, (3R)-N-[(1S)-1-{[(3R,4R)-3,4-Dimethyl-4-phenylpiperidin-1-yl]methyl}-2-methylpropyl]-7-hydroxy-1,2,3,4-tetrahydroisoquinoline-3-carboxamide] | – | – | – | – | – | 27% | 82.0 % of parent | 67.0 % of parent | –
13 | (3R)-N-[(1S)-1-{[(3R,4R)-3,4-Dimethyl-4-phenylpiperidin-1-yl]methyl}-2-methylpropyl]-1,2,3,4-tetrahydroisoquinoline-3-carboxamide [Compound 11] | 16 ± 7 nM | 45 | 724 ± 146 nM | – | >188 | – | – | – | Ke δ, DPDPE [1]: >3000 nM
